{
  "source": "paper PMC5343402",
  "about": "“Gossypol has anti-cancer effects by dual-targeting MDM2 and VEGF in human breast cancer” (Breast Cancer Research : BCR, 2017)",
  "biological_target": "T1, MDM2 (RING protein) (Homo sapiens, UniProt Q00987)",
  "T1 construct": "MDM2 RING protein",
  "T1 sequence (Q00987 whole entry)": "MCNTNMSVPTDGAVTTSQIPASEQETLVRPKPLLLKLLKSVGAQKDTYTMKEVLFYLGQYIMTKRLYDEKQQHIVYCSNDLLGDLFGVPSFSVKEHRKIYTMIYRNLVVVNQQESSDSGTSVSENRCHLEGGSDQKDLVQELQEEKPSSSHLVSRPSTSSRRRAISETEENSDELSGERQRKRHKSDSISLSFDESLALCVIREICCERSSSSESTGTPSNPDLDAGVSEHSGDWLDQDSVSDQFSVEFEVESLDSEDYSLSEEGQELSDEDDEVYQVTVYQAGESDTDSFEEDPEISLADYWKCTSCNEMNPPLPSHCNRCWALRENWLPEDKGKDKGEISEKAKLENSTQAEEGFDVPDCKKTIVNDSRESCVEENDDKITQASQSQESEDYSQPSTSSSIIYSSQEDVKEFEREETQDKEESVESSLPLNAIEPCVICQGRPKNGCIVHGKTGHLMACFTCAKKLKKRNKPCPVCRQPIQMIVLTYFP",
  "experiment": "isothermal titration calorimetry (auto-iTC200, one-site fit)",
  "type": "binding",
  "data": [
    {"smiles": "Cc1cc2c(C(C)C)c(O)c(O)c(C=O)c2c(O)c1-c1c(C)cc2c(C(C)C)c(O)c(O)c(C=O)c2c1O", "note": "[MX11, gossypol]", "values": [
      {"measurement": "Kd", "value": 5.21, "unit": "µM"}
    ]}
  ]
}
